Assay results from patent publication US12680083B2, “Media for culturing naive human pluripotent stem cells” (Yeda Research and Development Co. Ltd., priority 2014, dated 2026).

Columns and labels:
[1] = tested on: WIBR3 hESCs with ESRRB mCherry knock-in reporter; test: FACS analysis of ESRRB-mCherry knock-in reporter; type: cell-based, human
Description: FIGS. 26A-C depict the targeting human ESRRB (a gene/transcription factor) locus with knockin mCherry fluorescent reporter. FIG. 26A-Targeting scheme is illustrated. Scissors indicate CRISPR-sgRNA cut site. In order to create mCherry reporter co-expressed with endogenous human ESRRB locus, the present inventors have chosen to knock in p2a-mCherry coding sequence in frame with the last exon of the human ESRRB gene. The present inventors have inserted oligos specific for the stop codon region of ESRRB gene into px335 plasmid which encodes CAS9 nickase and sgRNA. The present inventors have targeted WIBR3 human ESC OCT4 GFP knockin cell line. The efficiency of the targeting was about 30% (15 out of 48 clones) as verified by external PCR. Correct targeting was also verified by Southern Blot (SB) with external and anti-mCherry probes (FIG. 26B). After Neo cassette excision with Flippase, the whole targeted locus from one of the clones was amplified and sequenced. Clones 2-6 were correctly targeted (FIG. 26C).
FIGS. 26D-H are FACS analyses depicting expression of ESRRB-mCherry reporter in PSCs.

PKCδ = PKCδ (Homo sapiens, UniProt Q05655); settings: cited from earlier work
PKCβ = PKCβ (Homo sapiens, UniProt P05771); settings: cited from earlier work
PKCα = PKCα (Homo sapiens, UniProt P17252); settings: cited from earlier work
PKCγ = PKCγ (Homo sapiens, UniProt P05129); settings: cited from earlier work
PKCμ = biological target: T1, PKCμ (Homo sapiens, UniProt Q15139); settings: cited from earlier work
T1 sequence (Q15139 1-912): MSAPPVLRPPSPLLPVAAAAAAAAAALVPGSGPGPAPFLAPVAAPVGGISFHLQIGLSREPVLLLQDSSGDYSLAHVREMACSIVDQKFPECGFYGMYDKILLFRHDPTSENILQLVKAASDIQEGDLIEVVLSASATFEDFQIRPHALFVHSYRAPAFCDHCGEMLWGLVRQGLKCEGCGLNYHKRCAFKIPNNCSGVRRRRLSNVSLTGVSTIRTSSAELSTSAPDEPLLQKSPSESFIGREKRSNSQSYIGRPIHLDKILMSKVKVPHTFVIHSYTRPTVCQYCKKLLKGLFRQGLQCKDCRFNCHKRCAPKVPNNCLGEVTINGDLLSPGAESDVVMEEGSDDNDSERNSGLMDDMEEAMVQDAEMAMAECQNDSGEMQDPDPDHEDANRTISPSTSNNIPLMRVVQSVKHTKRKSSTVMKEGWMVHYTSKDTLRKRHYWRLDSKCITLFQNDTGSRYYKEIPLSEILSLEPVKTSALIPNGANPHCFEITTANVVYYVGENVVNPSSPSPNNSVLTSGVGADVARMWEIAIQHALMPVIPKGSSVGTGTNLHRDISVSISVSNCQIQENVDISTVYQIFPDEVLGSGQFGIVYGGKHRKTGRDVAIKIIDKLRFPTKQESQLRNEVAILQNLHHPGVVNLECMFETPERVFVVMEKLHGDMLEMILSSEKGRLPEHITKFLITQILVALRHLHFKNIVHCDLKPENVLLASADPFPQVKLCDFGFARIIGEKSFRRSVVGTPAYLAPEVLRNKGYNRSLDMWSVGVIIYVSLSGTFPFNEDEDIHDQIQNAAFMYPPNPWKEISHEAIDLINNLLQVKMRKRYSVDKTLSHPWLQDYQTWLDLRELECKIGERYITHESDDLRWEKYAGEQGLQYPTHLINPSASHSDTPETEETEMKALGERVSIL

PKCζ = biological target: T2, PKCζ (Homo sapiens, UniProt Q05513); settings: cited from earlier work
T2 sequence (Q05513 1-592): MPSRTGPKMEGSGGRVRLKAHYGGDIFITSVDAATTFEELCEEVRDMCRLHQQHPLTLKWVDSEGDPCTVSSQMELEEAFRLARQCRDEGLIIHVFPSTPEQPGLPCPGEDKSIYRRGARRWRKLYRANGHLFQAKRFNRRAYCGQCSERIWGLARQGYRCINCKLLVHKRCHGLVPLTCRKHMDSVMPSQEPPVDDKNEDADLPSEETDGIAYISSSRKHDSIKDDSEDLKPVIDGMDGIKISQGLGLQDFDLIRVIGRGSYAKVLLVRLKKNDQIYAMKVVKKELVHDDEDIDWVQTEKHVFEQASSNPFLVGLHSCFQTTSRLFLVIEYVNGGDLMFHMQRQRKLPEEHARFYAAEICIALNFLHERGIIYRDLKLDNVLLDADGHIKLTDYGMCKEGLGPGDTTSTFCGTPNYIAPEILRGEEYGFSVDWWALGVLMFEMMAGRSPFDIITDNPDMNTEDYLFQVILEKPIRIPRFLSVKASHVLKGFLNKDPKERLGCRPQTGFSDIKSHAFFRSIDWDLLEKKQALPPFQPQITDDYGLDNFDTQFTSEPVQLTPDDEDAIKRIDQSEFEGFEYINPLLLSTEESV

Sequence of PKCβ (P05771 whole entry, species assumed): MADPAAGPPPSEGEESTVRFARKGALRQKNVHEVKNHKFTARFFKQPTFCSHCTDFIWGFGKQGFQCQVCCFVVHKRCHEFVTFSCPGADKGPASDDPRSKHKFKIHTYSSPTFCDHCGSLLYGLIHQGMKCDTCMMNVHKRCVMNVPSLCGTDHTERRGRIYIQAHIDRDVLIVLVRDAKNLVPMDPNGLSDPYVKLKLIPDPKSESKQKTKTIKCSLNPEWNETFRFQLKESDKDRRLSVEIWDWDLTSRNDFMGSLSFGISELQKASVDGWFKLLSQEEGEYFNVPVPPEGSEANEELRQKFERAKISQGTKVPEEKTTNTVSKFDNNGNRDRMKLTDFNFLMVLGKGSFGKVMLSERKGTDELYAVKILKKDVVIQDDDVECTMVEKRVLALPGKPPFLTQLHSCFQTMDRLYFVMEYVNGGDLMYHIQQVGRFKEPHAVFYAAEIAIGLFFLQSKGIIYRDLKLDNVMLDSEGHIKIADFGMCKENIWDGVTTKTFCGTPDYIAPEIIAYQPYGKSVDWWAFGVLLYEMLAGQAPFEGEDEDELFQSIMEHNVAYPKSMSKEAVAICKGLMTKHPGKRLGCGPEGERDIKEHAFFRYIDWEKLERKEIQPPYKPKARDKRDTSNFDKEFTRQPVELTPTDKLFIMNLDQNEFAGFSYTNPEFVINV
Sequence of PKCδ (Q05655 whole entry): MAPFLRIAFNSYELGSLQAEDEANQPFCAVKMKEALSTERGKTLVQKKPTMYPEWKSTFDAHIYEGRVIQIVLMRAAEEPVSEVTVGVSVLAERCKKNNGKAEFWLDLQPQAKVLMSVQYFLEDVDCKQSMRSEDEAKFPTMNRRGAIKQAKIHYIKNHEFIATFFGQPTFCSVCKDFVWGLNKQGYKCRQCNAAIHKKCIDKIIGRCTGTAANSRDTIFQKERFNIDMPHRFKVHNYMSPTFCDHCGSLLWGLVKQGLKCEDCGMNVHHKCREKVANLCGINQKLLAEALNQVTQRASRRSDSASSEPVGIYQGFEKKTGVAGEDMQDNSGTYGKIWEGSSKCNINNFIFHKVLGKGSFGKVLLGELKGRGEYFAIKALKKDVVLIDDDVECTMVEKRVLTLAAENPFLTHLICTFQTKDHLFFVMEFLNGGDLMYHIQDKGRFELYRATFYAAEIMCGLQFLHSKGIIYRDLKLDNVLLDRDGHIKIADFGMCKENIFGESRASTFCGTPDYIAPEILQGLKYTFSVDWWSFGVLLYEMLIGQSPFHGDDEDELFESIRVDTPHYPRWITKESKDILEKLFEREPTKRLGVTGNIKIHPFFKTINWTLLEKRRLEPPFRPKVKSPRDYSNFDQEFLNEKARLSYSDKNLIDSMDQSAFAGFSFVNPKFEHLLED

## COc1cc2nc(N3CCCN(C)CC3)nc(NC3CCN(Cc4ccccc4)CC3)c2cc1OC [BIX01294]
[1]; conditions 136 with BIX01294 removed from the culture medium
  ESRRB mCherry expression: this effect is lost

## COc1ccc2c(c1)c(C1=C(c3c[nH]c4ccccc34)C(=O)NC1=O)cn2CCCN(C)C [Go6983]
PKCδ
  IC50: 10 nM
PKCβ
  IC50: 7 nM
PKCα
  IC50: 7 nM
PKCγ
  IC50: 6 nM
PKCμ
  IC50: 20000 nM
PKCζ
  IC50: 60 nM

B1: Activin A: also known as Inhibin beta A, INHBA; activator of TGF/ACTIVIN pathway (protein, listed as Homo sapiens)
chain: MPLLWLRGFLLASCWIIVRSSPTPGSEGHSAAPDCPSCALAALPKDVPNSQPEMVEAVKKHILNMLHLKKRPDVTQPVPKAALLNAIRKLHVGKVGENGYVEIEDDIGRRAEMNELMEQTSEIITFAESGTARKTLHFEISKEGSDLSVVERAEVWLFLKVPKANRTRTKVTIRLFQQQKHPQGSLDTGEEAEEVGLKGERSELLLSEKVVDARKSTWHVFPVSSSIQRLLDQGKSSLDVRIACEQCQESGASLVLLGKKKKKEEEGEGKKKGGGEGGAGADEEKEQSHRPFLMLQARQSEDHPHRRRRRGLECDGKVNICCKKQFFVSFKDIGWNDWIIAPSGYHANYCEGECPSHIAGTSGSSLSFHSTVINHYRMRGHSPFANLKSCCVPTKLRPMSMLYYDDGQNIIKKDIQNMIVEECGCS
[1]; conditions 136 with Activin A added
  ESRRB mCherry expression: this effect is lost
